# US20240360178A1, “MACROCYCLIC IMMUNOMODULATORS” (Bristol-Myers Squibb Company, priority 2021, published 2024)
# Positions of bridges follow the written chain, without caps; N, C: chain ends. Non-standard residues stand in square brackets, D forms with d. Residues, ends and D or L forms follow the SMILES beside them. ξ: configuration not given here. Bip = N[C@@H](Cc1ccc(-c2ccccc2)cc1)C(=O)O; NMeF = CN[C@@H](Cc1ccccc1)C(=O)O; 4Pal = N[C@@H](Cc1ccncc1)C(=O)O; Cha = N[C@@H](CC1CCCCC1)C(=O)O; Ala(CN) = N#CC[C@H](N)C(=O)O; ξR = N=C(N)NCCCC(N)C(=O)O; NMeA = CN[C@@H](C)C(=O)O; Orn = NCCC[C@H](N)C(=O)O; Dab = NCC[C@H](N)C(=O)O; Dap = NC[C@H](N)C(=O)O; Sar = CNCC(=O)O
# Target: T1, human PD-1 (Jurkat-PD-1 cells) / PE-labeled human PD-L1-Ig (Homo sapiens, UniProt Q15116)
# T1 construct: expressed in transfected cells; host or cells: Jurkat cell line over-expressing human PD-1
# T1 sequence (Q15116 25-288): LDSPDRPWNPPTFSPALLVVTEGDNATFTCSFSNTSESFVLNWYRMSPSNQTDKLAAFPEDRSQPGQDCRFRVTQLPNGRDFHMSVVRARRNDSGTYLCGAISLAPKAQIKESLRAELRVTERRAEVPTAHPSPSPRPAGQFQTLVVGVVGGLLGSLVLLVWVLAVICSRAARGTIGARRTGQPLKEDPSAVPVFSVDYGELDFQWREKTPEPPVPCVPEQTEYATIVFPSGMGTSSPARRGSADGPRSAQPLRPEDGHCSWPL
# Experiment: Jurkat-PD-1 Cell Binding High-Content Screening Assay (CBA); Jurkat hPD1-PDL1 assay
# Conditions: Jurkat cell line over-expressing human PD-1; PE-labeled PD-L1-Ig 20 nM final; compound incubated 2 hours at 37° C.; read-out: Jurkat HPD1-PDL1 IC50
# In short: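 Compound was added to Jurkat-PD-1 cells in DMEM plus 10% fetal calf serum and incubated 2 hours at 37° C. Binding of phycoerythrin-conjugated PD-L1-Ig (20 nM final) to the cells was imaged.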
row,IC50 [nM],Compound
1,240,CC(C)C[C@@H]1NC(=O)[C@H](CCCNC(=N)N)NC(=O)[C@H](Cc2ccccc2)N(C)C(=O)[C@H](C)N(C)C(=O)[C@H](CN)NC(=O)[C@H](Cc2ccc(-c3ccccc3)cc2)NC(=O)[C@H](C(C)C)NC(=O)[C@H](Cc2c[nH]c3ccccc23)NC(=O)[C@H](CC(=O)O)NC(=O)[C@H](Cc2ccc(O)cc2)NC(=O)[C@H](Cc2ccccc2)NC(=O)CSC[C@@H](C(=O)NCC(N)=O)NC(=O)[C@H](CO)NC(=O)[C@H](C(C)C)NC1=O [Example 1242] ({CH2CO}-FYDWV[Bip][Dap][NMeA][NMeF]RLVSCG-NH2; thioether N-14)
2,10,CC(C)C[C@@H]1NC(=O)[C@H](Cc2c[nH]c3ccccc23)NC(=O)[C@H](CC#N)NC(=O)[C@H](Cc2ccc(O)cc2)NC(=O)[C@H](Cc2ccccc2)NC(=O)CSC[C@@H](C(=O)N[C@@H](C)C(N)=O)NC(=O)[C@H](CO)NC(=O)[C@H](C(C)C)NC(=O)[C@H](CC(C)C)NC(=O)[C@H](CC(N)=O)NC(=O)[C@H]2CCCN2C(=O)[C@H](C)N(C)C(=O)[C@H](C(C)C)NC(=O)[C@H](Cc2ccc(-c3ccccc3)cc2)NC1=O [Example 1429] ({CH2CO}-FY[Ala(CN)]WL[Bip]V[NMeA][dP]NLVSCA-NH2; thioether N-14)
3,510,CC(C)C[C@@H]1NC(=O)[C@H](CCCNC(=N)N)NC(=O)[C@H](Cc2ccccc2)N(C)C(=O)[C@H](C)N(C)C(=O)[C@H](CCCNC(=N)N)NC(=O)[C@H](Cc2ccc(-c3ccccc3)cc2)NC(=O)[C@H](C(C)C)NC(=O)[C@H](Cc2c[nH]c3ccccc23)NC(=O)[C@H](CC(=O)O)NC(=O)[C@H](Cc2ccc(O)cc2)NC(=O)[C@H](CCC(N)=O)NC(=O)CSC[C@@H](C(=O)N[C@@H](C)C(N)=O)NC(=O)[C@H]([C@@H](C)O)NC(=O)[C@H](C(C)C)NC1=O [Example 1323] ({CH2CO}-QYDWV[Bip]R[NMeA][NMeF]RLVTCA-NH2; thioether N-14)
4,990,CC(C)C[C@@H]1NC(=O)C(CCCNC(=N)N)NC(=O)[C@H](Cc2ccccc2)N(C)C(=O)[C@H](CCC(=O)O)NC(=O)[C@H](CCCNC(=N)N)NC(=O)[C@H](Cc2ccc(-c3ccccc3)cc2)NC(=O)[C@H](C(C)C)NC(=O)[C@H](Cc2c[nH]c3ccccc23)NC(=O)[C@H](CC(=O)O)NC(=O)[C@H](Cc2ccc(O)cc2)NC(=O)[C@H](Cc2ccccc2)NC(=O)CSC[C@@H](C(=O)NCC(N)=O)NC(=O)[C@H](CO)NC(=O)[C@H](C(C)C)NC1=O (stereo partly drawn) [Example 1223] ({CH2CO}-FYDWV[Bip]RE[NMeF][ξR]LVSCG-NH2; thioether N-14)
5,220,CC(C)C[C@@H]1NC(=O)[C@H](Cc2c[nH]c3ccccc23)NC(=O)[C@H](CC(=O)O)NC(=O)[C@H](Cc2ccc(O)cc2)NC(=O)[C@H](Cc2ccccc2)NC(=O)CSC[C@@H](C(=O)NCC(N)=O)NC(=O)[C@H](CO)NC(=O)[C@H](C(C)C)NC(=O)[C@H](CC(C)C)NC(=O)[C@H](CCCN)NC(=O)CN(C)C(=O)[C@H](C)N(C)C(=O)[C@H](C(C)C)NC(=O)[C@H](Cc2ccc(-c3ccccc3)cc2)NC1=O [Example 1079] ({CH2CO}-FYDWL[Bip]V[NMeA][Sar][Orn]LVSCG-NH2; thioether N-14)
6,590,CC(C)C[C@@H]1NC(=O)[C@H](CCCNC(=N)N)NC(=O)[C@H](Cc2ccccc2)N(C)C(=O)[C@H](C)N(C)C(=O)[C@H](CCCNC(=N)N)NC(=O)[C@H](Cc2ccc(-c3ccccc3)cc2)NC(=O)[C@H](C(C)C)NC(=O)[C@H](Cc2c[nH]c3ccccc23)NC(=O)[C@H](CC(=O)O)NC(=O)[C@H](CCCCN)NC(=O)[C@H](Cc2ccccc2)NC(=O)CSC[C@@H](C(=O)NCC(N)=O)NC(=O)[C@H](CO)NC(=O)[C@H](C(C)C)NC1=O [Example 1213] ({CH2CO}-FKDWV[Bip]R[NMeA][NMeF]RLVSCG-NH2; thioether N-14)
7,90,CC(C)[C@@H]1NC(=O)[C@H](Cc2c[nH]c3ccccc23)NC(=O)[C@H](CC(=O)O)NC(=O)[C@H](Cc2ccncc2)NC(=O)[C@H](CN)NC(=O)CSC[C@@H](C(=O)N[C@@H](C)C(N)=O)NC(=O)[C@H]([C@@H](C)O)NC(=O)[C@H](C(C)C)NC(=O)[C@H](CC2CCCCC2)NC(=O)[C@H](CCN)NC(=O)[C@H](Cc2ccccc2)N(C)C(=O)[C@H](CCCN)NC(=O)[C@H](CCC(=O)O)NC(=O)[C@H](Cc2ccc(-c3ccccc3)cc2)NC1=O [Example 1439] ({CH2CO}-[Dap][4Pal]DWV[Bip]E[Orn][NMeF][Dab][Cha]VTCA-NH2; thioether N-14)
8,480,CC(C)C[C@@H]1NC(=O)[C@H](Cc2c[nH]c3ccccc23)NC(=O)[C@H](CC(=O)O)NC(=O)[C@H](Cc2ccc(O)cc2)NC(=O)[C@H](Cc2ccccc2)NC(=O)CSC[C@@H](C(=O)N[C@@H](C)C(N)=O)NC(=O)[C@H]([C@@H](C)O)NC(=O)[C@H](C(C)C)NC(=O)[C@H](CC(C)C)NC(=O)[C@H](CC(N)=O)NC(=O)[C@H]2CCCN2C(=O)[C@H](CCN)NC(=O)[C@H](C(C)C)NC(=O)[C@H](Cc2ccc(-c3ccccc3)cc2)NC1=O [Example 1412] ({CH2CO}-FYDWL[Bip]V[Dab][dP]NLVTCA-NH2; thioether N-14)
9,610,CC[C@H](C)[C@@H]1NC(=O)[C@H](CC(C)C)NC(=O)[C@H](CC(N)=O)NC(=O)CN(C)C(=O)[C@H](C)N(C)C(=O)[C@H](C(C)C)NC(=O)[C@H](Cc2ccc(-c3ccccc3)cc2)NC(=O)[C@H](CC(C)C)NC(=O)[C@H](Cc2c[nH]c3ccccc23)NC(=O)[C@H](CC(=O)O)NC(=O)[C@H](Cc2ccc(O)cc2)NC(=O)[C@H](Cc2ccccc2)NC(=O)CSC[C@@H](C(=O)NCC(N)=O)NC(=O)[C@H](CO)NC1=O [Example 1142] ({CH2CO}-FYDWL[Bip]V[NMeA][Sar]NLISCG-NH2; thioether N-14)
10,140,CC(C)C[C@@H]1NC(=O)[C@H](CCCNC(=N)N)NC(=O)[C@H](Cc2ccccc2)N(C)C(=O)[C@H](C)N(C)C(=O)[C@H](CCCNC(=N)N)NC(=O)[C@H](Cc2ccc(-c3ccccc3)cc2)NC(=O)[C@H](C(C)C)NC(=O)[C@H](Cc2c[nH]c3ccccc23)NC(=O)[C@H](CC(=O)O)NC(=O)[C@H](Cc2ccc(O)cc2)NC(=O)[C@H](CCC(N)=O)NC(=O)CSC[C@@H](C(=O)N[C@@H](C)C(N)=O)NC(=O)[C@H](CO)NC(=O)[C@H](C(C)C)NC1=O [Example 1296] ({CH2CO}-QYDWV[Bip]R[NMeA][NMeF]RLVSCA-NH2; thioether N-14)
11,380,CC(C)C[C@@H]1NC(=O)[C@H](CCCNC(=N)N)NC(=O)[C@H](Cc2ccccc2)N(C)C(=O)[C@H](C)N(C)C(=O)[C@H](CCC(=O)O)NC(=O)[C@H](Cc2ccc(-c3ccccc3)cc2)NC(=O)[C@H](C(C)C)NC(=O)[C@H](Cc2c[nH]c3ccccc23)NC(=O)[C@H](CC(=O)O)NC(=O)[C@H](Cc2ccc(O)cc2)NC(=O)[C@H](Cc2ccccc2)NC(=O)CSC[C@@H](C(=O)N[C@@H](CCC(=O)O)C(N)=O)NC(=O)[C@H]([C@@H](C)O)NC(=O)[C@H](C(C)C)NC1=O [Example 1351] ({CH2CO}-FYDWV[Bip]E[NMeA][NMeF]RLVTCE-NH2; thioether N-14)
12,960,CC(C)C[C@@H]1NC(=O)[C@H](Cc2c[nH]c3ccccc23)NC(=O)[C@H](CC(=O)O)NC(=O)[C@H](Cc2ccc(O)cc2)NC(=O)[C@H](Cc2ccccc2)NC(=O)CSC[C@@H](C(=O)NCC(N)=O)NC(=O)[C@H](CO)NC(=O)[C@H](C(C)C)NC(=O)[C@H](CC(C)C)NC(=O)[C@H](CO)NC(=O)CN(C)C(=O)[C@H](C)N(C)C(=O)[C@H](C(C)C)NC(=O)[C@H](Cc2ccc(-c3ccccc3)cc2)NC1=O [Example 1225] ({CH2CO}-FYDWL[Bip]V[NMeA][Sar]SLVSCG-NH2; thioether N-14)
